Source: patent publication US9481648B2, “Kinase inhibitors” (Respivert Limited, priority 2013, dated 2016)
Like-named read-outs stand apart in the source and are kept apart here.

How the values were obtained:
[1] = tested on: β-catenin in d-U937 cells; assay: Accumulation of β catenin in d-U937 cells (assay m); format: cell-based, human
How it was run: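 U937 cells were differentiated with PMA (100 ng/mL) for 48–72 hr, then treated with compound or vehicle for 18 hr. After formaldehyde fixation, β-catenin was detected with a primary antibody and an HRP secondary using TMB (OD450–655). Signal was normalised to crystal violet cell staining (OD595).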

GSK 3α = GSK 3α (Homo sapiens (Human), UniProt P49840); assay: GSK 3α enzyme inhibition (FRET, Z-LYTE; Method 2); format: biochemical; details: read-out: IC50 Values for Enzyme Inhibition GSK3α
Sequence of GSK 3α (P49840 whole entry): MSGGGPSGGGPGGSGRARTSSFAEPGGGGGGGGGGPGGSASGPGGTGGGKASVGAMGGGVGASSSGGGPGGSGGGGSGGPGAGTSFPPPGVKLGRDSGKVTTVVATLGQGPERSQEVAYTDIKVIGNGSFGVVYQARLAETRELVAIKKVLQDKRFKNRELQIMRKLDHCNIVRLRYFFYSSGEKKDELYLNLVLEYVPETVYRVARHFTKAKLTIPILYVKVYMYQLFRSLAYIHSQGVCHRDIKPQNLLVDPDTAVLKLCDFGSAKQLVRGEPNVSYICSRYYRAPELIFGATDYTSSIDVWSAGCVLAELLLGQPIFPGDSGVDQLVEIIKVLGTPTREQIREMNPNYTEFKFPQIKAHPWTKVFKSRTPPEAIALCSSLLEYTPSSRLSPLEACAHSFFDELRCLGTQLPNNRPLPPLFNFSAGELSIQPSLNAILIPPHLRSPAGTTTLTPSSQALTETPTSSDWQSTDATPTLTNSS
How it was run: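 Phosphorylation was taken from the donor (coumarin) to acceptor (fluorescein) emission ratio after 1 h protease development, which cleaves only unphosphorylated peptide. Before that, peptide (8 μM stock) plus ATP (40 μM stock) reacted 1 h. This followed a 105 min RT preincubation of GSK3-α with compound stocks of 10–0.01 μg/mL.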

p38 MAPKα (MAPK14) = p38 MAPKα (MAPK14) (Homo sapiens (Human), UniProt Q16539); assay: p38 MAPKα enzyme inhibition (FRET, Z-LYTE; Method 2); format: biochemical
Sequence of p38 MAPKα (MAPK14) (Q16539 whole entry): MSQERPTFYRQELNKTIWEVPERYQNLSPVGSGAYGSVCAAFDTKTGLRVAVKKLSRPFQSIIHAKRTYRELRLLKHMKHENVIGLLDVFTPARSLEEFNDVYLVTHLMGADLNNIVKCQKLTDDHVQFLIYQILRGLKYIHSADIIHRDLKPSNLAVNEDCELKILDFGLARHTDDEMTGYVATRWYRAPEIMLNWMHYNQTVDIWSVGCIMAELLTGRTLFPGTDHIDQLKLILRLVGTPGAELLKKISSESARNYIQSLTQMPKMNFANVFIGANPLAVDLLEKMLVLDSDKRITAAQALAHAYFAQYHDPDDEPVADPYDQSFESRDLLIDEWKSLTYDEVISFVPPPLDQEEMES

c-Src = c-Src (Homo sapiens (Human), UniProt P12931); assay: c-Src enzyme inhibition (FRET, Z-LYTE); format: biochemical
Sequence of c-Src (P12931 whole entry, looked up): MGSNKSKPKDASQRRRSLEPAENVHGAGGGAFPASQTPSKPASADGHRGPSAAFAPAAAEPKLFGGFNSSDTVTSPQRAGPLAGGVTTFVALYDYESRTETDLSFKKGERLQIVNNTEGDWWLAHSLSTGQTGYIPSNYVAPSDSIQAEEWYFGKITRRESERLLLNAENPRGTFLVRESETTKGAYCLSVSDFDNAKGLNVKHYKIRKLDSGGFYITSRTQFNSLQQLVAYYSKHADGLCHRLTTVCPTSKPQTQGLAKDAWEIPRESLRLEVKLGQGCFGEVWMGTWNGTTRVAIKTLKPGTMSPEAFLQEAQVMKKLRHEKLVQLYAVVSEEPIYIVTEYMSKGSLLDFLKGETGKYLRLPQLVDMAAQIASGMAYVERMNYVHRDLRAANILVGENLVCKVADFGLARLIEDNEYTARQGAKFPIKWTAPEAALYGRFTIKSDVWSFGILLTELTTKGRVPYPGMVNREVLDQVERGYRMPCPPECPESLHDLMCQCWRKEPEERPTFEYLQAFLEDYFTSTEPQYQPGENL
How it was run: (§1)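 Syk or c-Src enzyme (3000 or 2000 ng/mL solutions) was preincubated 2 h at RT with compound solutions at 1, 0.1, 0.01 or 0.001 µg/mL. Z-LYTE FRET peptide (8 µM solution) and ATP (800 µM solution for c-Src, 60 µM for Syk) were then added for 1 h, followed by protease development for 1 h. Phosphorylation was read as the coumarin/fluorescein emission ratio.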

Syk = Syk (Homo sapiens (Human), UniProt P43405); assay: Syk enzyme inhibition (FRET, Z-LYTE); format: biochemical
How it was run: as §1

[2] = tested on: endotoxin (LPS)-induced uveitis in Lewis rats; assay: Endotoxin-induced uveitis in rats (in vivo vi); set-up: species or system rat; details: for Cell counts / IL-1β Anterior tissue / IL-1β Posterior tissue: Table 7c; for cytokine levels in both the anterior and posterior segments of the eyes: rats treated with intravitreal endotoxin LPS, topical dosing
Description: Male, Lewis rats (6-8 weeks old, Charles River UK Limited) are housed in cages of 3 at 19-21° C. with a 12 h light/dark cycle (07:00/19:00) and fed a standard diet of rodent chow and water ad libitum. Non-fasted rats are weighed, individually identified on the tail with a permanent marker, and receive a single intravitreal administration into the right vitreous humor (5 μL dose volume) of 100 ng/animal of LPS (Escherichia coli 0111:B4 prepared in PBS, Sigma Aldrich, UK) using a 32-gauge needle. Untreated rats are injected with PBS. […] Following euthanasia, the right eye of each animal is enucleated and dissected into front (anterior) and back (posterior) sections around the lens. Each section is weighed and homogenised in 500 μL of sterile phosphate buffered saline followed by 20 minutes centrifugation at 12000 rpm at 4° C.

[3] = Plasma pharmacokinetics in rats, single intravenous or oral administration; format: in vivo, rat (male Wistar); details: rats
Description: Studies were conducted by Sai Life Sciences (Hinjewadi, Pune, India) to investigate the plasma pharmacokinetics and total colon tissue distribution of compounds of the invention. In particular, pharmacokinetic studies were carried out in: • male C57BL/6 mice, following a single oral administration; and • male Wistar rats following a single intravenous or oral administration.

[4] = tested on: TNBS-induced colitis in BDF1 mice; assay: TNBS-induced colitis in mice (in vivo iv); set-up: species or system mouse; details: for inflammatory cell infiltrate in the reticular and laminar propria zones / ulcer grade and epithelial repair compared to the vehicle control: 5 mg/kg orally, 2 days; for inflammatory cell infiltrate in the reticular and laminar propria zones / ulcer grade and epithelial repair compared to the vehicle control / activity in in vivo model of colonic inflammation (histopathology analysis): TNBS-induced colitis, mice; for LP inflammation / Ulcer grade: TNBS-induced colitis in mice, 5 mg/kg oral; for activity in in vivo model of colonic inflammation (histopathology analysis): conducted over 2 days
Description: Non-fasted, 10-12 week old, male BDF1 mice are dosed by oral gavage twice daily with either vehicle (5 mL/kg), reference item (Budesonide 2.5 mg/kg) or test compound (1 or 5 mg/kg) one day before (Day −1) stimulation of the inflammatory response by treatment with 2,4,6-trinitrobenzenesulphonic acid (TNBS) (15 mg/mL in 50% ethanol/50% saline). On Day 0 of the study TNBS (200 μL) is administered intra-colonically via a plastic catheter with BID dosing of the vehicle, reference or test compound continuing for 2 or 4 days. During the study, animals are weighed every day and stool observations are made and recorded as a score, based on stool consistency. At the time of sacrifice on Day 2 (or Day 4), the large intestine is removed and the length and weight recorded. Sections of the colon are taken for histopathology scoring to determine disease severity.

[5] = Hydrolytic stability study; format: physicochemical; details: for % Parent Remaining: DMSO:water (3:1), 1 mg/mL
Description: Chemical stability of compounds of the invention was assessed in a mixture of DMSO and water (3:1) at a test compound concentration of 1 mg/mL
Sample Preparation • A 1.0 mg sample of test compound was dissolved in 750 μL of DMSO. Water (250 μL) was added slowly, ensuring no precipitation occurred.
Recording Stability • A 50 μL aliquot of the test solution was removed and analysed in duplicate by 5 μL HPLC injections. The peak area for the test compound was recorded following manual integration of the corresponding UV trace. • The test solution was heated to 60° C., with stirring, and 50 μL aliquots removed for HPLC analysis at 5 and 24 h timepoints.

CYP3A4 = CYP3A4 (Homo sapiens (Human), UniProt P08684); assay: CYP3A4 inhibition study; format: in vitro ADME; details: for inhibition at 15 µM: human, read-out: 15 μM % Inh
Sequence of CYP3A4 (P08684 whole entry): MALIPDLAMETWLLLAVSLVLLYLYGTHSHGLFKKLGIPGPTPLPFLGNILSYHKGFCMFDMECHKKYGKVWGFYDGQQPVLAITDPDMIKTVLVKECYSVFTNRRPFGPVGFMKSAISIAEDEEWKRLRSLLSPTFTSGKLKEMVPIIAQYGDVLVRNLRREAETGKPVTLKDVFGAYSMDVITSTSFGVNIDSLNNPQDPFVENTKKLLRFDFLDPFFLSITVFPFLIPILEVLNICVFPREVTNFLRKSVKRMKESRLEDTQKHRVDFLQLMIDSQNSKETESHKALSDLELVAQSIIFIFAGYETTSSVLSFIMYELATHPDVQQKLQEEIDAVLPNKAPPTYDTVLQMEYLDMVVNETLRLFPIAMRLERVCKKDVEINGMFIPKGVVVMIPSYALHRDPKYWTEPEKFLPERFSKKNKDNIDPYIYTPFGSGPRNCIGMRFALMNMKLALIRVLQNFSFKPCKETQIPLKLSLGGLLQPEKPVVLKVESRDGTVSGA
Description: Assessment of certain in vitro ADME (absorption, distribution, metabolism, and excretion) parameters for certain compounds of the invention was conducted by BioFocus (Saffron Walden, UK).

non-mutant kinases = format: binding; details: for number of individual kinase hits, S(1): non-mutant kinases with % Ctrl <1
Description: These assays may be conducted by DiscoverX (formerly Ambit; San Diego, Calif.). The percentage inhibition produced by incubation with a test compound may be calculated relative to the non-inhibited control.

[6] = eyes of LPS-stimulated rats, 1 mg/mL
[7] = male, Wistar, rat, plasma, intravenous 0.25 mg/kg
[8] = Table 7a, eyes of LPS-stimulated rats, 1 mg/mL

SMILES: COc1cc(Nc2cc(Oc3ccc(NC(=O)Nc4cc(C(C)(C)C)cc(NS(C)(=O)=O)c4OC)c4ccccc34)ccn2)cc(C(=O)NCCCN2CCOCC2)c1 [Example 66, 3-((4-((4-(3-(5-(tert-Butyl)-2-methoxy-3-(methysulfonamido)phenyl)ureido)naphthalen-1-yl)oxy)pyridin-2-yl)amino)-5-methoxy-N-(3-morpholinopropyl)benzamide]
- % β-catenin induction ([1]; test compound 1 μg/mL): 0%
- % β-catenin induction ([1]; test compound 5 μg/mL): 6%
- % β-catenin induction ([1]; test compound 10 μg/mL): 3%
- IC50 (GSK 3α): 2430 nM
- IC50 (p38 MAPKα (MAPK14)): 140 nM
- IC50 (c-Src): 23 nM
- IC50 (Syk): 330 nM
- Cell counts [2, 6]: 28.0 ± 7.6
- IL-1β Anterior tissue [2, 6]: 342.7 ± 145.3 pg/mL
- IL-1β Posterior tissue [2, 6]: 209.9 ± 59.0 pg/mL
- cytokine levels in both the anterior and posterior segments of the eyes [2]: significantly reduced

SMILES: CNC(=O)c1cc(C(C)(C)C)cc(NC(=O)Nc2ccc(Oc3ccnc(Nc4cc(OC)cc(OCCOCCOCCOC)c4)c3)c3ccccc23)c1OC [Example 29, 5-(tert-Butyl)-2-methoxy-3-(3-(4-((2-((3-methoxy-5-(2-(2-(2-methoxyethoxy)ethoxy)-ethoxy)phenyl)amino)pyridin-4-yl)oxy)naphthalen-1-yl)ureido)-N-methylbenzamide]
- % β-catenin induction ([1]; test compound 1 μg/mL): 4%
- % β-catenin induction ([1]; test compound 5 μg/mL): 7%
- % β-catenin induction ([1]; test compound 10 μg/mL): −4%
- IC50 (GSK 3α): 6320 nM
- IC50 (p38 MAPKα (MAPK14)): 26 nM
- AUC(0-inf) [3, 7]: 295 ng·h/mL
- AUC(0-t) [3, 7]: 293 ng·h/mL
- half-life [3, 7]: 42 min
- C0 ([3]; male, Wistar, rat, plasma, intravenous 0.25 mg/kg in 5% DMSO-7.5% Solutol HS15-87.5% normal saline): 2500 ng/mL
- Vd ([3]; male, Wistar, rat, plasma, intravenous 0.25 mg/kg, read-out: Vss): 0.3 L/kg
- CI ([3]; intravenous 0.25 mg/kg): 14.2 mL/min/kg
- IC50 (c-Src): 19 nM
- IC50 (Syk): 96 nM
- Cell counts [2, 6]: 33.0 ± 6.7
- IL-1β Anterior tissue [2, 6]: 441.3 ± 138.5 pg/mL
- IL-1β Posterior tissue [2, 6]: 272.1 ± 93.8 pg/mL
- cytokine levels in both the anterior and posterior segments of the eyes [2]: significantly reduced

SMILES: COCCOCCOCCOc1cc(Nc2cc(Oc3ccc(NC(=O)Nc4cc(C(C)(C)C)cc(C(N)=O)c4OC)c4ccccc34)ccn2)cc(OC)c1 [Example 34, 5-(tert-Butyl)-2-methoxy-3-(3-(4-((2-((3-methoxy-5-(2-(2-(2-methoxyethoxy)ethoxy)ethoxy)phenyl)amino)pyridin-4-yl)oxy)naphthalen-1-yl)ureido)benzamide]
- % β-catenin induction ([1]; test compound 1 μg/mL): 1%
- % β-catenin induction ([1]; test compound 5 μg/mL): 7%
- % β-catenin induction ([1]; test compound 10 μg/mL): −9%
- inflammatory cell infiltrate in the reticular and laminar propria zones [4]: marked reduction
- ulcer grade and epithelial repair compared to the vehicle control [4]: marked improvements
- LP inflammation [4]: 2.6 ± 0.3
- Ulcer grade [4]: 3.6 ± 0.2
- activity in in vivo model of colonic inflammation (histopathology analysis) [4]: substantial activity
- IC50 (GSK 3α): 9330 nM
- IC50 (p38 MAPKα (MAPK14)): 25 nM
- IC50 (c-Src): 19 nM
- IC50 (Syk): 85 nM

SMILES: C[C@@H]1C[C@H]2[C@@H]3CCC4=CC(=O)C=C[C@]4(C)[C@@]3(F)[C@@H](O)C[C@]2(C)[C@@]1(O)C(=O)CO [Dexamethasone]
- IL-1β Anterior [2, 8]: 553.5 ± 155.7 pg/mL
- IL-1β Posterior [2, 8]: 365.6 ± 178.2 pg/mL
- IL-6 Anterior [2, 8]: 1000.7 ± 126.2 pg/mL
- IL-6 Posterior [2, 8]: 1723.4 ± 224.1 pg/mL
- MCP-1 Anterior [2, 8]: 156.3 ± 50.8 pg/mL
- MCP-1 Posterior [2, 8]: 95.2 ± 32.5 pg/mL

SMILES: C#Cc1cc(Nc2nccc(Oc3ccc(NC(=O)Nc4cc(C(C)C)nn4-c4ccc(C)cc4)c4ccccc34)n2)cc(C(=O)NCCN2CCOCC2)c1 [Reference Compound B, 3-ethynyl-5-((4-((4-(3-(3-isopropyl-1-(p-tolyl)-1H-pyrazol-5-yl)ureido)naphthalen-1-yl)oxy)pyrimidin-2-yl)amino)-N-(2-morpholinoethyl)benzamide, reference compound]
- decomposition under the conditions of the hydrolytic stability experiment ([5]; 1 mg/mL in DMSO and water (3:1), 60° C., 5 and 24 h): substantial decomposition
- % Parent Remaining ([5]; 0 min): 100%
- % Parent Remaining ([5]; 60° C., 300 min): 82%
- % Parent Remaining ([5]; 60° C., 1440 min): 36%

SMILES: COc1cc(Nc2nccc(Oc3ccc(NC(=O)Nc4cc(C(C)(C)C)cc(NS(C)(=O)=O)c4OC)c4ccccc34)n2)cc(S(=O)(=O)C2CC2)c1 [Example 5]
- % β-catenin induction ([1]; test compound 1 μg/mL): 10%
- % β-catenin induction ([1]; test compound 5 μg/mL): 27%
- % β-catenin induction ([1]; test compound 10 μg/mL): 19%
- IC50 (GSK 3α): 2870 nM
- IC50 (CYP3A4; CYP3A4, 0 min preincubation): > 15000 nM
- IC50 (CYP3A4; CYP3A4, 30 min preincubation): > 15000 nM
- inhibition at 15 µM (CYP3A4; CYP3A4, 0 min preincubation): 0%
- inhibition at 15 µM (CYP3A4; CYP3A4, 30 min preincubation): 27%
- IC50 (p38 MAPKα (MAPK14)): 271 nM
- IC50 (c-Src): 48 nM
- IC50 (Syk): 1170 nM

SMILES: COc1cc(Nc2cc(Oc3ccc(NC(=O)Nc4cc(C(C)(C)C)cc(NS(C)(=O)=O)c4OC)c4ccccc34)ccn2)cc(C(=O)NCCN2CCN(C)CC2)c1 [Example 79]
- % β-catenin induction ([1]; test compound 1 μg/mL): −4%
- % β-catenin induction ([1]; test compound 5 μg/mL): 1%
- % β-catenin induction ([1]; test compound 10 μg/mL): 5%
- inflammatory cell infiltrate in the reticular and laminar propria zones [4]: marked reduction
- ulcer grade and epithelial repair compared to the vehicle control [4]: marked improvements
- LP inflammation [4]: 3.5 ± 0.5
- Ulcer grade [4]: 3.4 ± 0.6
- activity in in vivo model of colonic inflammation (histopathology analysis) [4]: substantial activity
- IC50 (GSK 3α): 4330 nM
- IC50 (p38 MAPKα (MAPK14)): 56 nM
- IC50 (c-Src): 35 nM
- IC50 (Syk): 339 nM

SMILES: COCC(=O)Nc1cc(Oc2ccc(NC(=O)Nc3cc(C(C)(C)C)nn3-c3ccc(C)cc3)c3ccccc23)ccn1 [Reference Compound, N-(4-(4-(3-(3-tert-butyl-1-p-tolyl-1H-pyrazol-5-yl)ureido)naphthalen-1-yloxy)pyridin-2-yl)-2-methoxyacetamide, reference compound]
- number of individual kinase hits, S(1) (non-mutant kinases; 50 nM): 7
- number of individual kinase hits, S(10) (non-mutant kinases; 50 nM, non-mutant kinases with % Ctrl <10): 32
- number of individual kinase hits, S(35) (non-mutant kinases; 50 nM, non-mutant kinases with % Ctrl <35): 67
- number of individual kinase hits, S(1) (non-mutant kinases; 500 nM): 45
